Experimental data reported in patent publication US20220023273A1, “METHODS FOR TREATING SYMPTOMS AND DISORDERS ASSOCIATED WITH LYSOSOMAL STORAGE DISEASES” (GENZYME CORPORATION, priority 2019, published 2022).

What was measured:
Format in all cases: in vivo, human
[1] = tested on: plasma GL-1, GL-3, and GM3; test: Phase 1 Study 2: pharmacodynamics
Method: The study enrolled and randomized 36 healthy adults (19 men and 17 women) (n=9 each to group).
Pharmacodynamic endpoints (plasma GL-1, GL-3, and GM3 concentrations) were assessed on Days 1-5, 8, 11, 13, and 14, at 0 hours […]; and on Day 15, at 24 hours after the Day 14 dose.

[2] = tested on: adult patients with Gaucher disease Type 3; test: GD3 clinical study: horizontal and vertical saccadic eye movements; details: GD3, 15 mg/day oral + imiglucerase
Method: (§1) During the study patients were evaluated for safety and tolerability, CSF and plasma biomarkers (glucosylceramide, GL-1; glucosylsphingosine, lyso-GL1), pharmacokinetics, markers for systemic disease (spleen and liver volume measured by magnetic resonance imaging (MRI), platelet count, hemoglobin levels), indicia of interstitial lung disease (high resolution pulmonary computed tomography (CT)), and horizontal saccadic eye movement.
Quantification of horizontal and vertical saccadic eye movements (HSEM and VSEM, respectively) was performed in all 5 patients. In the five patients, mean peak velocity (PV) of horizontal rightward 150 saccades was 50.8°/s (+/−8.1°/s) at baseline and […] (+/−12.6°/s) at Week 26: and the mean PV of horizontal leftward 150 saccades was 44.7°/s (+/−17.9°/s) at baseline and 32.3°/s (+/−15.9°/s) at Week 26. […]
At 52 weeks, quantification of horizontal and vertical saccadic eye movements was performed in all six patients in a similar manner as described in section (A). However, it was determined that the methodology used to account for noise (e.g., caused by blinking or head movements) may have introduced bias into the results. The method of accounting for noise was therefore modified, and a set of control criteria were developed to assess validity of the datasets obtained by the eye movement reader.

[3] = Phase 1 studies: safety profile
Method: In all studies, safety profile was assessed by monitoring treatment-emergent adverse events (TEAEs) through 10 days after last dose of study medication, including serious adverse events [SAEs]), ECG monitoring, laboratory values, and physical examinations.

[4] = tested on: adult patients with Gaucher disease Type 3; test: GD3 clinical study: interstitial lung disease by high-resolution CT; details: after 26 weeks; GD3, 15 mg/day oral + imiglucerase
Method: as §1
Severity of interstitial lung disease was characterized by the percent of lung volume affect by ILD as measured by high-resolution CT in four lung regions (aortic arch, carina, lower zone L3, lower zone L4). Patients were rated as having severe ILD (51-100% of lung volume affected), moderate ILD (26-50% of lung volume affected), mild ILD (1-25% of lung volume affected) or normal (0% of lung volume showing ILD).

[5] = healthy volunteers, all Phase 1 studies

CC(C)(NC(=O)O[C@@H]1CN2CCC1CC2)c1csc(-c2ccc(F)cc2)n1 [Compound 2, (S)-quinuclidin-3-yl (2-(2-(4-fluorophenyl)thiazol-4-yl)propan-2-yl)carbamate]
day on which maximal sustained GM3 decreases start ([1]; all Compound 2 dose groups): 13 days
Plasma GL-3 ([1]; all Compound 2 dose groups, low baseline values relative to LLOQ): decreased with time
plasma GL-1 and GM3 levels ([1]; healthy adults, 5, 10, 20 mg once daily 14 days): decreased from baseline time- and dose-dependently
VSEM measurements ([2]; between baseline and week 26): stable
changes in HSEM ([2]; over the 26-week treatment period): no clinically meaningful changes
Vital signs [3, 5]: no relevant changes from baseline
deaths, SAEs, severe TEAEs, discontinuations [3, 5]: no deaths, SAEs, severe TEAEs, or TEAEs leading to study discontinuation
hematologic or biochemical abnormalities [3, 5]: No clinically relevant hematologic or biochemical abnormalities
ECG parameters ([3]; single ascending dose and food effect studies): no relevant changes
patients showing regression of ILD [4]: 4 out of 5
